Results on 8 molecules are retold here after patent publication US20070021360A1, “Compositions, formulations and kit with anti-sense oligonucleotide and anti-inflammatory steroid and/or obiquinone for treatment of respiratory and lung disesase” (priority 2001, published 2007).

In one data set the test system is Intracellular Adenosine. Briefly: In vivo effect on adenosine levels in rat tissues (HPLC). Set-up: species or system Fischer 344 rats. On the procedure: Folinic acid (50 mg/kg) was administered intraperitoneally once daily for fourteen days. […] Hearts were removed from animals and flash frozen in liquid nitrogen with 10 seconds of death. Liver and lungs were removed en bloc and flash frozen with 30 seconds of death. Brain tissue was subsequently dissected.

Data set [1] relates to HT-29 SF cells. The data set is described as follows: Reversal of DHEA-mediated growth inhibition. Type of data set: cell-based, human. The settings on record: 25 μM DHEA; supplement in medium; 48 hours.
For data set [2], the system named is HT-29 SF cells. The data set is described as follows: Reversal of DHEA effect on cell cycle. It is filed as cell-based, human. The note with it: 25 FM DHEA; supplement in medium; 48 and 72 hours.
For data set [3], the target named is T1, adenosine A1 receptor (Oryctolagus cuniculus, UniProt P34970).
T1 construct: Airway smooth muscle tissue was dissected from each rabbit and a membrane fraction prepared; from tissue; host or cells: rabbit airway smooth muscle, crude plasma membranes
T1 sequence (P34970 1-328): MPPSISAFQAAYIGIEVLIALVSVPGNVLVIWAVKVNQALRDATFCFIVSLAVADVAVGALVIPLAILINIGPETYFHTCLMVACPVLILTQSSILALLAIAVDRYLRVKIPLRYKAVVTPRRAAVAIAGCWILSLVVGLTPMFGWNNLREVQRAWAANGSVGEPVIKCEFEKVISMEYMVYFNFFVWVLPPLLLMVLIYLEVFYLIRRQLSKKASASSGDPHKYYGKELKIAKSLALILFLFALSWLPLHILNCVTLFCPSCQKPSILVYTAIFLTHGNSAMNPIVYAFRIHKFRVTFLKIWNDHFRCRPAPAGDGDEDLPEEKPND
The settings on record: mismatch controls; Nyce & Metzger (1997); cited from earlier work.

Data set [4] has as its system adenosine A1 receptor. Briefly: Adenosine-induced bronchoconstriction (PC50 Adenosine) in allergic rabbits. Type of data set: in vivo. The note with it: allergic rabbits; cross-over experiment; 20 mg total aerosolized oligo. On the procedure:
A fortuitous hoology between the rabbit and human DNA sequences within the adenosine A1 gene overlapping the initiation codon permitted the use of the phosphorothioate anti-sense oligonucleotides initially designed for use against the human adenosine A1 receptor in a rabbit model. Neonatal New Zealand white Pasteurella-free rabbits were immunized intraperitoneally within 24 hours of birth with 312 antigen units/ml house dust mite (D. farinae) extract (Berkeley Biologicals, Berkeley, Calif.), mixed with 10% kaolin. Immunizations were repeated weekly for the first month and then biweekly for the next 2 months. At 3-4 months of age, eight sensitized rabbits were anesthetized and relaxed with a mixture of ketamine hydrochloride (44 mg/kg) and acepromazine maleate (0.4 mg/kg) administered intramuscularly. The rabbits were then laid supine in a comfortable position on a small molded, padded animal board and intubated with a 4.0-mm intratracheal tube (Mallinkrodt, Inc., Glens Falls, N.Y.). A polyethylene catheter of external diameter 2.4 mm with an attached latex balloon was passed into the esophagus and maintained at the same distance (approximately 16 cm) from the mouth throughout the experiments. The intratracheal tube was attached to a heated Fleisch pneumotachograph (size 00; DOM Medical, Richmond, Va.), and flow was measured using a Validyne differential pressure transducer (Model DP-45161927; Validyne Engineering Corp., Northridge, Calif.) driven by a Gould carrier amplifier (Model 11-4113; Gould Electronic, Cleveland, Ohio). The esophageal balloon was attached to one side of the differential pressure transducer, and the outflow of the intratracheal tube was connected to the opposite side of the pressure transducer to allow recording of transpulmonary pressure. Flow was integrated to give a continuous tidal volume, and measurements of total lung resistance (RL) and dynamic compliance (Cdyn) were calculated at isovolumetric and flow zero points, respectively, using an automated respiratory analyzer (Model 6; Buxco, Sharon, Conn.). Animals were randomized and on Day 1 pretreatment values for PC50 were obtained for aerosolized adenosine. Anti-sense (HAdA1AS) or mismatched control (HAdA1MM) oligonucleotides were dissolved in sterile physiological saline at a concentration of 5000 μg (5 mg) per 1.0 ml. […] Aerosols of either saline, adenosine, or anti-sense or mismatch oligonucleotides were generated by an ultrasonic nebulizer (DeVilbiss, Somerset, Pa.), producing aerosol droplets 80% of which were smaller than 5:m in diameter. In the first arm of the experiment, four randomly selected allergic rabbits were administered anti-sense oligonucleotide and four the mismatched control oligonucleotide. On the morning of the third day, PC50 values (the concentration of aerosolized adenosine in mg/ml required to reduce the dynamic compliance of the bronchial airway 50% from the baseline value) were obtained and compared to PC50 values obtained for these animals prior to exposure to oligonucleotide. Following a 1 week interval, animals were crossed over, with those previously administered mismatch control oligonucleotide now administered anti-sense oligonucleotide, and those previously treated with anti-sense oligonucleotide now administered mismatch control oligonucleotide. Treatment methods and measurements were identical to those employed in the first arm of the experiment. […] For the purpose of calculation, PC50 values for these animals were set at 20 mg/ml. The values given therefore represent a minimum figure for anti-sense effectiveness. Actual effectiveness was higher.
Aerosols of either adenosine (0-20 mglnml), or anti-sense or one of two mismatch oligonucleotides (5 mg/ml) were separately prepared with an ultrasonic nebulizer (Model 646, DeVilbiss, Somerset, Pa.), which produced aerosol droplets, 80% of which were smaller than 5:m in diameter. […]

A further data set relates to adenosine A3 receptor. Briefly: Inflammatory cells in bronchial lavage fluid after dust mite allergen. The settings on record: allergic rabbits, 20 mg oligo, lavage 3 hours later. Type of data set: in vivo, rabbit. The protocol:
The number of inflammatory cells was determined in their bronchial lavage fluid 3 hours later by counting at least 100 viable cells per lavage. The effect of anti-sense oligos III (SEQ ID NO: 9377) and IV (SEQ ID NO: 9378) upon granulocytes, and upon total cells in bronchial lavage were assessed following exposure to dust mite allergen. […] As is known in the art, granulocytes, especially eosinophils, are the primary inflammatory cells of asthma and the administration of anti-sense oligos III (SEQ ID NO: 9377) and IV (SEQ ID NO: 9378) reduced their numbers by 40% and 66%, respectively. […] This is also an important indicator of anti-inflammatory activity by the present anti-adenosine A3 agents of the invention. Inflammation is known to underlie bronchial hyperresponsiveness and allergen-induced bronchoconstriction in asthma. Both anti-sense oligonucleotides III (SEQ ID NO: 9377) and IV (SEQ ED NO: 9378), which are targeted to the adenosine A3 receptor, are representative of an important new class of anti-inflammatory agents which may be designed to specifically target the lung receptors of each species.

Data set [5] addresses B2 bradykinin receptor (rabbit airway smooth muscle membranes) (rabbit) (UniProt Q28642). Briefly: radioligand binding, airway smooth muscle membranes; rabbits treated with B2A bradykinin receptor anti-sense oligo, 2 mg.
Data set [6] has the same target. The data set is described as follows: radioligand binding, airway smooth muscle membranes; rabbits treated with B2MM mismatch control, 20 mg.
The target is the same in data set [7]. The data set is described as follows: radioligand binding, airway smooth muscle membranes; rabbits treated with A1MM1 mismatch control, 20 mg.
Data set [8] shares this target. The data set is described as follows: radioligand binding, airway smooth muscle membranes; saline control rabbits.
The target is the same in data set [9]. The data set is described as follows: radioligand binding, airway smooth muscle membranes; rabbits treated with B2A bradykinin receptor anti-sense oligo, 0.2 mg.
Data set [10] shares this target. Briefly: radioligand binding, airway smooth muscle membranes; rabbits treated with B2MM mismatch control, 0.2 mg.
Data set [11] has the same target. Briefly: radioligand binding, airway smooth muscle membranes; rabbits treated with A1 receptor anti-sense oligo, 2 mg.
Data set [12] shares this target. The data set is described as follows: radioligand binding, airway smooth muscle membranes; rabbits treated with A1 receptor anti-sense oligo, 0.2 mg.
Data set [13] has the same target. Briefly: radioligand binding, airway smooth muscle membranes; rabbits treated with B2A bradykinin receptor anti-sense oligo, 20 mg.
Data set [14] shares this target. Briefly: radioligand binding, airway smooth muscle membranes; rabbits treated with B2MM mismatch control, 2 mg.
Data set [15] shares this target. The data set is described as follows: radioligand binding, airway smooth muscle membranes; rabbits treated with A1 receptor anti-sense oligo, 20 mg.
Data set [16] shares this target. The data set is described as follows: radioligand binding, airway smooth muscle membranes; rabbits treated with A1MM1 mismatch control, 2 mg.
Setting [17] is: once daily 14 days, DHEA 300 mg/kg, methyltestosterone 40 mg/kg (120 mg/kg in M + F.A.), folinic acid 50 mg/kg, mean ± SEM.
Setting [18] is: daily for two weeks, DHEA or high dose methyltestosterone.
[19] abbreviates: methyltestosterone 120 mg/kg, mean ± SEM.

Sequence of B2 bradykinin receptor (rabbit airway smooth muscle membranes) (rabbit) (Q28642 whole entry): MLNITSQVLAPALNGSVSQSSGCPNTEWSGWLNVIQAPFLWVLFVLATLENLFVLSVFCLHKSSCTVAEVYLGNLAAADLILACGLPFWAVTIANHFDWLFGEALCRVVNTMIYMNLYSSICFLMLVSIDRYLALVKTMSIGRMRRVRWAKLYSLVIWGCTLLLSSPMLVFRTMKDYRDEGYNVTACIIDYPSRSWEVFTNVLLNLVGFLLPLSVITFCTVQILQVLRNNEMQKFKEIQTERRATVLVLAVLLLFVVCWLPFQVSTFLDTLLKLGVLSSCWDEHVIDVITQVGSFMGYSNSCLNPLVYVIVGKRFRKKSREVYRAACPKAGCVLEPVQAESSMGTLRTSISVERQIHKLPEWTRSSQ

With `Nc1nc(=O)c2c([nH]1)NCC(CNc1ccc(C(=O)N[C@@H](CCC(=O)O)C(=O)O)cc1)N2C=O` (mixture of isomers) [Folinic Acid (F.A.), Folinic acid], the “effect on adenosine levels when administered alone” value in the data set on Intracellular Adenosine (folinic acid 50 mg/kg intraperitoneally) is reported as “increase in adenosine levels for all organs studied”. Moreover, the “effect of co-administration on steroid-mediated adenosine depletion” value with Intracellular Adenosine (folinic acid co-administered with DHEA or methyltestosterone) was “completely abrogated steroid-mediated adenosine depletion”. In the data set with Intracellular Adenosine (setting [17]), the “Intracellular Adenosine, Brain” value stood at 0.72 ± 0.09 nmol/mg protein and the “Intracellular Adenosine, Heart” value was 12.4 ± 2.1 nmol/mg protein.
Consider `CC(C)=CCC/C(C)=C/CC/C(C)=C/CC/C=C(\C)CC/C=C(\C)CCC=C(C)C` [SQ, squalene], for which the “reversal of DHEA-induced growth inhibition” value in the data set on HT-29 SF cells [1] is “no such effect”.
For the molecule `CC(C)CCC[C@@H](C)[C@H]1CC[C@H]2[C@@H]3CC=C4C[C@@H](O)CC[C@]4(C)[C@H]3CC[C@]12C` [CH, cholesterol], in the data set on HT-29 SF cells [2], the “prevention of DHEA-induced S phase depletion” value is “very little effect at 48 hours and no effect at 72 hours”. Moreover, the “reversal of DHEA-induced growth inhibition” value in the data set on HT-29 SF cells [1] is “no such effect”.
On to “5′-GATGGAGGCGGGCATGGCGGG-3 [Oligo A1MM3, reference compound]”, for which the “effect upon any of the targeted receptors (A1, A2 or B2)” value on adenosine A1 receptor [3] was “absolutely no effect”. Moreover, the “effect on PC50 Adenosine value” in the data set on adenosine A1 receptor [4] is “no effect”.
For the molecule “5′-GGC CCA GGG CCA GCC-31 (antisense GGCCCAGGGCCAGCC; all phosphorothioate, sugars by position and methylation of C not given here) [Oligo IV, targets adenosine A3 receptor mRNA +386 to +401]”, in the data set with adenosine A3 receptor, the “reduction of granulocyte numbers in bronchial lavage” value came to 66% and the “reduction of total number of cells in bronchial lavage fluid” value stood at 40%.
Turning to `C[C@@](O)(CCO)CC(=O)O` [MVA, mevalonic acid], the “prevention of DHEA-induced S phase depletion” value in the data set on HT-29 SF cells [2] was “partially prevented this effect in the initial 48 hours but not after 72 hours”. In addition, in the data set on HT-29 SF cells [1], the “reversal of DHEA-induced growth inhibition” value is given as “partially overcome”.
Consider `C[C@]12CCC(=O)C=C1CC[C@@H]1[C@@H]2CC[C@@]2(C)[C@H]1CC[C@]2(C)O` [Methyltestosterone, methyltestosterone], for which, in the data set with Intracellular Adenosine (setting [18]), the “depletion of adenosine in brain” value came to 34% and the “depletion of adenosine in heart” value was determined as 22%. In the data set with Intracellular Adenosine (in vivo), the “Intracellular Adenosine, Brain” value was found to be 0.42 ± 0.06 nmol/mg protein and the “Intracellular Adenosine, Heart” value is reported as 8.3 ± 1.0 nmol/mg protein. Moreover, in the data set with Intracellular Adenosine (setting [19]), the “Intracellular Adenosine, Brain” value was found to be 0.32 ± 0.03 nmol/mg protein and the “Intracellular Adenosine, Heart” value is 6.0 ± 0.4 nmol/mg protein.
Regarding [3H]NPC 17731 (peptide), the dissociation constant (Kd) was 0.34 nM in [5]; 0.41 nM in data set [6]; 0.35 nM in data set [7]; 0.39 nM in [8]; 0.35 nM in data set [9]; 0.36 nM in data set [10]. Besides, the Kd in data set [11] came to 0.41 nM; in data set [12] it was 0.34 nM; in data set [13], 0.38 nM; in data set [14] it was 0.37 nM; in [15], 0.39 nM; in data set [16], 0.38 nM.
